{
  "source": "patent US20250120975A1",
  "about": "“INTEGRIN INHIBITORS FOR TREATMENT OF PRIMARY SCLEROSING CHOLANGITIS” (Pliant Therapeutics, Inc., priority 2023, published 2025)",
  "key": {"[1]": {"test_system": "PCLivS from human liver tissue with biliary fibrosis (PSC, PBC)", "experiment": "Fibrotic gene expression (NanoString) in precision cut liver slices", "type": "cell-based", "conditions": "for % Inhibition of expression COL1A1 / % Inhibition of expression COL1A2: PCLivS from a single PSC liver", "text": "A human liver tissue explant was obtained from a PSC patient undergoing liver transplantation.\nSlicing: To slice, 8-mm cores were punctured from the liver tissue and were stored in ice cold UW solution until slicing. A tissue core was glued onto the center of the plunger of the specimen syringe for slicing. The core was embedded in 2% low gelling temperature agarose made up in milliQ water. The thickness of the slice was adjusted to 400 μm and was sectioned into oxygenated KHB occurs. The slices were stored in cold UW solution on ice until all slices were cut.\nCulture: The compounds were diluted to 1000× concentration in 100% DMSO. The compounds were diluted in a medium with a final concentration of 0.1% DMSO before transferring the slices and making a fresh medium for each 24-H medium change. Before being used for slice culture, all media was equilibrated in the incubator at culture conditions for 30 minutes. After all slices have been cut, all slices were transferred to wells prefilled with oxygenated, warmed, and equilibrated WEGG. The slices were incubated for 1 hour in the incubator at a temperature of 37° C., 5% CO2, 80% 02, 100% humidity on shaking platform set at 55 rpm. After this one-hour recovery, the slices were transferred to wells prefilled with oxygenated, warmed, and equilibrated WEGG with appropriate treatments. The slices were distributed into the treatment groups to account for inter-core variability. The slices were cultured at 37° C., 80% 02, 5% CO2, 100% humidity on shaking platform set at 55 rpm. The medium was changed after 24 hours.\nThe slices were removed from the well and rinsed in PBS. Excess liquid was removed. The slices were transferred to a microtube pooling all three slices from the same treatment into one tube. The pooled slices were snap frozen in liquid nitrogen and placed on dry ice until all samples were collected and then transferred to −80° C. for storage. For media collection, 140 μL of medium was pooled from each well within a treatment group and transferred to a 96-well Axygen plate. After sealing the plate, spin down occurred at 4000×g for 10 minutes at 4° C. Then, 130 μL aliquots were transferred into 3 new plates. The plates were sealed and stored at −80° C.\n(S)-4-((2-methoxyethyl)(4-(5,6,7,8-tetrahydro-1,8-naphthyridin-2-yl)butyl)amino)-2-(quinazolin-4-ylamino)butanoic acid was tested at 100 nM, 1 μM, and 10 μM. OCA, an FXR agonist in clinical trials for PSC, was used at 250 nM and 2.5 μM reflecting Cmax levels observed in clinical trials. An ALK5 inhibitor (R268712) was used at 1 μM (400 times its IC50 per manufacturer) to target max inhibition of the ALK5 receptor.\nMethods: Lysis buffer was made with one third RLT buffer in RNAse-free water and 2 mg/mL proteinase K. About 100-200 μL lysis buffer was added to each pool of 3 liver slices. Samples were incubated at 55° C. in the bead bath for 2 hours and 45 minutes, vortexing every 30 minute. Samples were centrifuged and the supernatant aliquoted in 15 μL aliquots into 96-well Axygen plates.\nMethods: nCounter PlexSet was run according to standard protocol. Briefly, probe A and probe B were diluted with TE-tween to Working Probe Pools and mixed with hybridization buffer. This master mix was added to the A-H PlexSets and mixed. Each PlexSet was added across a row to a 96 well qPCR plate and proteinase K was added to a final concentration of 2 mg/mL. Lysate from samples was added to appropriate wells and mixed. The plate was sealed, spun, and placed in thermocycler at 67° C. for 16 hours. Hybridized samples were pooled down columns and 35 μL were loaded on a Sprint Cartridge and run on the nCounter Sprint. Data analysis was performed in nSolver using background thresholding based on negative controls, positive control normalization, reference sample normalization and normalization to housekeeping genes (GUSB, HPRT1, POLR1B, RPLP0, SRFS4, and/or UBC). […]"}, "αVβ1 integrin": {"target": "αVβ1 integrin (Homo sapiens, UniProt P05556+P06756)", "sequence (P06756 31-1048)": "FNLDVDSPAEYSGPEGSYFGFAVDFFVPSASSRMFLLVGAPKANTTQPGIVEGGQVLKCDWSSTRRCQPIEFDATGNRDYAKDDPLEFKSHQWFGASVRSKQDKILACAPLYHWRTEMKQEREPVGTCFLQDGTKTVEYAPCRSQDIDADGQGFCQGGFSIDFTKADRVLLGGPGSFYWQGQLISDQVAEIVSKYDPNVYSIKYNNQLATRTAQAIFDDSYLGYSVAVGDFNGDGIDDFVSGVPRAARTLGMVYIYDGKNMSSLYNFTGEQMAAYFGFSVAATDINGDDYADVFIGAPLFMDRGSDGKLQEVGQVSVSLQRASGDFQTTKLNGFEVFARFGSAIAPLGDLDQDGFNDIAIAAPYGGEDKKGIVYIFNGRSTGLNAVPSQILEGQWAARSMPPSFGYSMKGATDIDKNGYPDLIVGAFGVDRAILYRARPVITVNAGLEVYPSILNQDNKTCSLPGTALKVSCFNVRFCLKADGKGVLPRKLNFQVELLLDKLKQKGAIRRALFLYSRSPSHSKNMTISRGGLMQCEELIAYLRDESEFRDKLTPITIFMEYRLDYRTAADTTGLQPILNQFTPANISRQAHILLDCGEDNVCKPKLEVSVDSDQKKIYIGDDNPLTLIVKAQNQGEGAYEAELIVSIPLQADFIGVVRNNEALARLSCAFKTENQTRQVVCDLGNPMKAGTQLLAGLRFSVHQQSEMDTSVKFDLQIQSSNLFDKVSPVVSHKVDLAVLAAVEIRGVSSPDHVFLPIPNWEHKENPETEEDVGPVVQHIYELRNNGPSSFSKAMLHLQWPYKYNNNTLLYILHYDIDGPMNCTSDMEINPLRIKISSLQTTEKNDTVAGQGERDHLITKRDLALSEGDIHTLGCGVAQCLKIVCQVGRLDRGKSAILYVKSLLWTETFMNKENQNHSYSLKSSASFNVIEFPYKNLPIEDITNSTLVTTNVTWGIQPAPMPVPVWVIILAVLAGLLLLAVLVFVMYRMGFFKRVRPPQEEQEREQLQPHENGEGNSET", "sequence (P05556 21-798)": "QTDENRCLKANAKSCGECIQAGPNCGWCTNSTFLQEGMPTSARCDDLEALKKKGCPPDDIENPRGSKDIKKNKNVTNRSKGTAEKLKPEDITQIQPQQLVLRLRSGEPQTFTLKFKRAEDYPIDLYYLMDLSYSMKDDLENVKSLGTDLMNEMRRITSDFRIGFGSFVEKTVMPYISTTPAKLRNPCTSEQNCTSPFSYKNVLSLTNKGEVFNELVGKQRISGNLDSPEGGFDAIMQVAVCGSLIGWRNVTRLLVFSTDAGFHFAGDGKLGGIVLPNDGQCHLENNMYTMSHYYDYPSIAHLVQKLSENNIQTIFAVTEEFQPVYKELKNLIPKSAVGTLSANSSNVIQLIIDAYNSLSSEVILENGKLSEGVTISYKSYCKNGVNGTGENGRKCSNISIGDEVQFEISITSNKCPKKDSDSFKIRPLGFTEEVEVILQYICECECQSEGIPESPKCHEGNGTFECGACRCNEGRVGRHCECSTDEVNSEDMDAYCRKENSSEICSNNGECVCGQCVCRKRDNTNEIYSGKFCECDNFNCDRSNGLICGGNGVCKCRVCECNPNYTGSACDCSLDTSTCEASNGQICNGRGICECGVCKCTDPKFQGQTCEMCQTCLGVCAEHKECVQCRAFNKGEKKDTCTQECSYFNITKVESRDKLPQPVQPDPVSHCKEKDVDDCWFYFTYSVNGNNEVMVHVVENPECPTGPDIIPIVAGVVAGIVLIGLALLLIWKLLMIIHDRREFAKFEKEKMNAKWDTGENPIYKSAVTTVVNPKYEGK", "experiment": "Inhibition of αVβ1 integrin (IC50)", "type": "binding", "conditions": "read-out: 50% inhibitory concentration [IC50] αVβ1"}, "[2]": {"test_system": "subjects with PSC and suspected liver fibrosis", "experiment": "Phase 2a INTEGRIS-PSC: PRO-C3 (collagen synthesis)", "type": "in vivo, human", "text": "In Parts 1 and 2, plasma, serum, and urine biomarker samples were obtained at predetermined times as indicated in the Schedule of Events (see Table B-4). In Part 3, plasma and serum biomarker samples were obtained at predetermined times as indicated in the Schedule of Events (see Table B-5 and Table B-6). These samples were used to measure specific proteins, nucleotides and/or metabolites that were elevated in subjects with fibrosis, and/or pharmacodynamic markers that could change with inhibition of integrins αVβ6 and αVβ1. The samples were also used to perform exploratory investigations using metabolomic or proteomic methods for use in future studies in subjects with fibrotic diseases.\nAbsolute and relative changes from Baseline in liver fibrosis biomarkers (including PRO-C3 and ELF) and in ALP are presented in numerical and graphical forms by treatment and dose utilizing data from the timepoints specified in the Schedule of Events. Changes from Baseline to Week 12(Parts 1 and 2) and Week 24 (Part 3) in magnetic resonance (MR)-based liver imaging are also evaluated, as well as changes in PROs."}, "[3]": {"conditions": "relative to inhibition with high dose ALK5 inhibitor, PCLivS from 10 livers"}},
  "data": [
    {"smiles": "COCCN(CCCCc1ccc2c(n1)NCCC2)CC[C@H](Nc1ncnc2ccccc12)C(=O)O", "note": "[Bexotegrast, (S)-4-((2-methoxyethyl)(4-(5,6,7,8-tetrahydro-1,8-naphthyridin-2-yl)butyl)amino)-2-(quinazolin-4-ylamino)butanoic acid]", "values": [
      {"measurement": "% Inhibition of expression COL1A1", "setting": "[1]; 100 nM, 2 days", "value": "−6", "unit": "%"},
      {"measurement": "% Inhibition of expression COL1A2", "setting": "[1]; 100 nM, 2 days", "value": "−8", "unit": "%"},
      {"measurement": "% Inhibition of expression COL1A1", "setting": "[1]; 1 μM, 2 days", "value": 27, "unit": "%"},
      {"measurement": "% Inhibition of expression COL1A2", "setting": "[1]; 1 μM, 2 days", "value": 9, "unit": "%"},
      {"measurement": "% Inhibition of expression COL1A1", "setting": "[1]; 10 μM, 2 days", "value": 61, "unit": "%"},
      {"measurement": "% Inhibition of expression COL1A2", "setting": "[1]; 10 μM, 2 days", "value": 41, "unit": "%"},
      {"measurement": "dose dependence of COLIA1 and COLIA2 mRNA expression", "setting": "[1]; PCLivS from human PSC liver tissue, 2 days", "value": "reduced in a dose dependent manner"},
      {"measurement": "inhibition of the TGF-β-driven COL3A1 expression", "setting": "[1]; [3]", "value": "≤ 41", "unit": "%"},
      {"measurement": "inhibition of the TGF-β-driven COLIA1 expression", "setting": "[1]; [3]", "value": "up to 28%"},
      {"measurement": "inhibition of the TGF-β-driven TGF-81 expression", "setting": "[1]; [3]", "value": "≤ 48", "unit": "%"},
      {"measurement": "trend down in overall expression of COLIA1", "setting": "[1]; ≥1 μM, PCLivS from 10 livers with biliary fibrosis (6 PSC, 4 PBC), 2 days", "value": 22, "unit": "%"},
      {"measurement": "IC50", "setting": "αVβ1 integrin", "value": 3.4, "unit": "nM"},
      {"measurement": "PRO-C3, difference to placebo", "setting": "[2]; 40 mg (p<0.01) and 160 mg (p<0.05), Week 12, Example B-3", "value": "statistically significant differences from placebo"},
      {"measurement": "PRO-C3 levels relative to placebo", "setting": "[2]; 320 mg, Week 12, Example B-4", "value": "reduction"},
      {"measurement": "collagen synthesis (PRO-C3) relative to placebo", "setting": "[2]; all doses (40, 80, 160 mg), Week 12, Example B-3", "value": "reduced"},
      {"measurement": "PRO-C3 relative to the placebo", "setting": "[2]; all doses, statistical significance at Week 12 for 40 mg, 160 mg and pooled groups, Example B-4", "value": "reduced"}
    ]}
  ]
}
